From PMC8733726, “Dioctanoyl Ultrashort Tetrabasic β-Peptides Sensitize Multidrug-Resistant Gram-Negative Bacteria to Novobiocin and Rifampicin” (Frontiers in Microbiology, 2021)
In brackets after ≈: the same amount, converted by molar mass. Like-named read-outs stand apart in the source and are kept apart here.

Columns and labels:
[1] = system: MDR P. aeruginosa clinical isolates; assay: Resistance phenotype (MICs of antibiotics) of MDR clinical isolates; format: cell-based, Pseudomonas aeruginosa; conditions: Pseudomonas aeruginosa, read-out: MIC
[2] = system: wild-type P. aeruginosa PAO1; assay: microbe, parasite or virus in culture; format: cell-based, Pseudomonas aeruginosa; conditions: PAO1; for MICcombo: antibiotic with dUSTBβP 3 at 8 μg/mL; for MIC: Pseudomonas aeruginosa, 18 h, antibiotic alone (Supplementary Table 7), read-out: MICantibiotic
Text: (§1) Overnight-grown bacterial culture diluted in saline to 0.5 McFarland turbidity was successively diluted 1:50 in MHB to achieve a final concentration of 5 × 10^5 CFU/mL for inoculation. The antibiotic and adjuvant were serially diluted 2-fold along the x-axis and y-axis, respectively, resulting in varying concentrations of both agents in each well. […] Confirmation of turbidity was done using an EMax Plus microplate reader (Molecular Devices, United States) at a wavelength of 590 nm. Wells comprising MHB alone or in the presence of bacterial cells were used as negative or positive controls, respectively. Fractional inhibitory concentration index (FICI) is determined by adding the FICs of both antibiotic and adjuvant. The FIC of the antibiotic is calculated by dividing the MIC of the antibiotic in the presence of the adjuvant by the MIC of the antibiotic alone. Similarly, the FIC of the adjuvant is calculated by dividing the MIC of the adjuvant in the presence of the antibiotic by the MIC of the adjuvant alone.

[3] = system: wild-type A. baumannii ATCC 17978; assay: Checkerboard assay; format: cell-based, Acinetobacter baumannii; conditions: ATCC 17978; for MICcombo: antibiotic with dUSTBβP 3 at 8 μg/mL; for MIC: Acinetobacter baumannii, ATCC17978, 18 h, antibiotic alone (Supplementary Table 7), read-out: MICantibiotic
Text: as §1

[4] = system: wild-type E. coli ATCC 25922; assay: microbe, parasite or virus in culture; format: cell-based, Escherichia coli; conditions: ATCC 25922; for MICcombo: antibiotic with dUSTBβP 3 at 8 μg/mL; for MIC: Escherichia coli, ATCC25922, 18 h, antibiotic alone (Supplementary Table 7), read-out: MICantibiotic
Description: The adjuvant activities of dUSTBβPs were evaluated using checkerboard assay as previously described ([Berry et al., 2019]). Overnight-grown bacterial culture diluted in saline to 0.5 McFarland turbidity was successively diluted 1:50 in MHB to achieve a final concentration of 5 × 10^5 CFU/mL for inoculation. The antibiotic and adjuvant were serially diluted 2-fold along the x-axis and y-axis, respectively, resulting in varying concentrations of both agents in each well. Subsequently, the 96-well plate was incubated with equal volumes of bacterial inoculum at 37°C for 18 h. Confirmation of turbidity was done using an EMax Plus microplate reader (Molecular Devices, United States) at a wavelength of 590 nm. Wells comprising MHB alone or in the presence of bacterial cells were used as negative or positive controls, respectively. Fractional inhibitory concentration index (FICI) is determined by adding the FICs of both antibiotic and adjuvant. The FIC of the antibiotic is calculated by dividing the MIC of the antibiotic in the presence of the adjuvant by the MIC of the antibiotic alone. Similarly, the FIC of the adjuvant is calculated by dividing the MIC of the adjuvant in the presence of the antibiotic by the MIC of the adjuvant alone. FICI ≤ 0.5, 0.5 < x ≤ 4, and >4 were deemed synergistic, additive, and antagonistic, respectively ([Meletiadis et al., 2010]).

[5] = system: MDR E. coli clinical isolates; assay: Resistance phenotype (MICs of antibiotics) of MDR clinical isolates; format: cell-based, Escherichia coli; conditions: Escherichia coli, read-out: MIC
[6] = system: MDR K. pneumoniae clinical isolates; assay: as above; format: cell-based, Klebsiella pneumoniae; conditions: Klebsiella pneumoniae, read-out: MIC
[7] = system: MDR E. cloacae clinical isolates; assay: as above; format: cell-based, Enterobacter cloacae; conditions: Enterobacter cloacae, read-out: MIC
[8] = system: MDR A. baumannii clinical isolates; assay: as above; format: cell-based, Acinetobacter baumannii; conditions: Acinetobacter baumannii, read-out: MIC

| SMILES | MIC ([1]; 259-96196) [µg/mL] | MIC ([1]; 262-101856) [µg/mL] | MIC ([1]; 264-104354) [µg/mL] | MIC [1]; 91433 [µg/mL] | MICcombo [4] [µg/mL] | MIC [4] [µg/mL] | MIC ([5]; 94393 (mcr-1 +)) [µg/mL] | MIC ([5]; 94474 (mcr-1 +)) [µg/mL] | MIC [5]; 107115 [µg/mL] | MIC [6]; 113250 [µg/mL] | MIC [6]; 113254 [µg/mL] | MIC [6]; 116381 [µg/mL] | MIC [7]; 117029 [µg/mL] | MIC [7]; 118564 [µg/mL] | MIC [7]; 121187 [µg/mL] | MIC [8]; 92247 [µg/mL] | further results |
| --- | --- | --- | --- | --- | --- | --- | --- | --- | --- | --- | --- | --- | --- | --- | --- | --- | --- |
| C[C@@H](O)[C@H]1C(=O)N2C(C(=O)O)=C(S[C@@H]3CN[C@H](CNS(N)(=O)=O)C3)[C@H](C)[C@H]12 [DOR, doripenem] | > 1020 | 16 (≈ 38 µM) | 16 (≈ 38 µM) | 16 (≈ 38 µM) | – | – | – | – | – | – | – | – | – | – | – | – | MIC [1]; 114228: 8 µg/mL (≈ 19 µM) |
| C[C@@H]1O[C@@H]1P(=O)(O)O [Fosfomycin] | – | – | – | – | 8 | 16 | – | – | – | – | – | – | – | – | – | – | MICcombo [2]: 2 µg/mL; MIC [2]: 32 µg/mL (≈ 232 µM); MICcombo [3]: 256 µg/mL; MIC [3]: > 256 µg/mL |
| NCC[C@H](O)C(=O)N[C@@H]1C[C@H](N)[C@@H](O[C@H]2O[C@H](CN)[C@@H](O)[C@H](O)[C@H]2O)[C@H](O)[C@H]1O[C@H]1O[C@H](CO)[C@@H](O)[C@H](N)[C@H]1O [AMK, amikacin] | > 64 | > 64 | 8 (≈ 13.7 µM) | > 32 | – | – | 2 (≈ 3.42 µM) | 2 (≈ 3.42 µM) | 2 (≈ 3.42 µM) | ≤ 1 | ≤ 1 | ≤ 1 | 2 (≈ 3.42 µM) | 2 (≈ 3.42 µM) | 1 (≈ 1.71 µM) | < 1 | MIC ([8]; AB027): > 64 µg/mL; MIC ([8]; AB031): 2 µg/mL (≈ 3.42 µM); MIC ([8]; LAC-4): 4 µg/mL (≈ 6.83 µM) |
| C[C@@H](O)[C@H]1C(=O)N2C(C(=O)O)=C(S[C@@H]3CN[C@H](C(=O)Nc4cccc(C(=O)O)c4)C3)[C@H](C)[C@H]12 [ETP, ertapenem] | > 32 | > 32 | > 32 | > 32 | – | – | ≤ 0.03 | ≤ 0.03 | > 32 | ≤ 0.03 | ≤ 0.03 | 0.12 (≈ 0.252 µM) | ≤ 0.03 | – | – | – | – |
| O=C(O)c1cn(C2CC2)c2cc(N3CCNCC3)c(F)cc2c1=O [Ciprofloxacin] | – | – | – | – | 0.002 | 0.008 | – | – | – | – | – | – | – | – | – | – | – |
| CO[C@@]1(NC(=O)Cc2cccs2)C(=O)N2C(C(=O)O)=C(COC(N)=O)CS[C@@H]21 [FOX, cefoxitin] | > 32 | > 32 | > 32 | > 32 | – | – | 4 (≈ 9.36 µM) | 16 (≈ 37.4 µM) | > 32 | 1 (≈ 2.34 µM) | 1 (≈ 2.34 µM) | 16 (≈ 37.4 µM) | > 32 | > 32 | > 32 | 32 (≈ 74.9 µM) | – |
| COc1cc(Cc2cnc(N)nc2N)cc(OC)c1OC [Trimethoprim] | – | – | – | – | 64 | 512 | – | – | – | – | – | – | – | – | – | – | MICcombo [2]: 32 µg/mL; MIC [2]: 128 µg/mL (≈ 441 µM); MICcombo [3]: > 128 µg/mL; MIC [3]: > 128 µg/mL |
| Cc1nnc(SCC2=C(C(=O)O)N3C(=O)[C@@H](NC(=O)Cn4cnnn4)[C@H]3SC2)s1 [CFZ, cefazolin] | > 128 | > 128 | > 128 | > 128 | – | – | 1 (≈ 2.2 µM) | 4 (≈ 8.8 µM) | > 128 | 1 (≈ 2.2 µM) | 1 (≈ 2.2 µM) | > 128 | > 128 | > 128 | 32 (≈ 70.4 µM) | 128 (≈ 282 µM) | MIC ([8]; AB027): > 128 µg/mL; MIC ([8]; AB031): > 128 µg/mL |
